The record followed here is patent US20240317735A1, “HYDROISOQUINOLINE OR HYDRONAPHTHYRIDINE COMPOUNDS FOR THE TREATMENT OF AUTOIMMUNE DISEASE” (Hoffmann-La Roche Inc., priority 2020, published 2024).

The test concerns the target T1, human TLR8 (Homo sapiens, UniProt Q9NR97).
T1 construct: host or cells: HEK293 (HEK-Blue hTLR8)
T1 sequence (Q9NR97 27-1041): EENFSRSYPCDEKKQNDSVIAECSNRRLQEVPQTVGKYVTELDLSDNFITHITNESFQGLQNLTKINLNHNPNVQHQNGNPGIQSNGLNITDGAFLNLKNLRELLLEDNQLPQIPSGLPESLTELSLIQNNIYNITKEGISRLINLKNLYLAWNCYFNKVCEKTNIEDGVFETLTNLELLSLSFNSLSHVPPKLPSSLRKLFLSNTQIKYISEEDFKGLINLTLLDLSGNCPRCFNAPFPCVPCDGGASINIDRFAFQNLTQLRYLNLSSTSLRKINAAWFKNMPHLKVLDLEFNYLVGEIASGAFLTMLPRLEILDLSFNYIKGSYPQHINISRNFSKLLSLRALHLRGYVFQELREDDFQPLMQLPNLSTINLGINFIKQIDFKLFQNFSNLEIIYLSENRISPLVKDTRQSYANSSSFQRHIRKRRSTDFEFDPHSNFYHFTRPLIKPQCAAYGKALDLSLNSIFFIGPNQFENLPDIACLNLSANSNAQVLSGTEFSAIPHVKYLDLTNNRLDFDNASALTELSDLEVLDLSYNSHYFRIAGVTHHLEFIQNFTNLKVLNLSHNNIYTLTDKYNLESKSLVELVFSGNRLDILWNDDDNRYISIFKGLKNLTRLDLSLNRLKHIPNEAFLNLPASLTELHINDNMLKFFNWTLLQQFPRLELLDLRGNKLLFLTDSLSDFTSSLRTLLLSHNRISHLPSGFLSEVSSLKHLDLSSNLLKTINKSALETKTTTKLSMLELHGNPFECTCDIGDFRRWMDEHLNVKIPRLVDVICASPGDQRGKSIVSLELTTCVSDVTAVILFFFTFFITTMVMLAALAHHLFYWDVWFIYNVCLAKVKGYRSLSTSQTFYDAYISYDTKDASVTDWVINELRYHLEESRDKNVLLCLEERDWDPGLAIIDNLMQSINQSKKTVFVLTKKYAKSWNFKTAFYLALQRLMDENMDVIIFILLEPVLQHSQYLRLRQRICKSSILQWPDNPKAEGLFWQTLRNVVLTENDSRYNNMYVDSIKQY
The experiment in a line: HEK293-Blue-hTLR-8 cells assay (SEAP reporter, R848 stimulation). The format is cell-based. Conditions: HEK293-Blue-hTLR8 cells, R848, 20 hrs; read-out: HEK/hTLR8 IC50. As for the experimental part:
The following tests were carried out in order to determine the activity of the compounds of formula (I) and (Ia) in HEK293-Blue-hTLR-7/8/9 cells assay.
A stable HEK293-Blue-hTLR-8 cell line was purchased from InvivoGen (Cat. #: hkb-htlr8, San Diego, California, USA). These cells were originally designed for studying the stimulation of human TLR8 by monitoring the activation of NF-κB. A SEAP (secreted embryonic alkaline phosphatase) reporter gene was placed under the control of the IFN-β minimal promoter fused to five NF-κB and AP-1-binding sites. The SEAP was induced by activating NF-κB and AP-1 via stimulating HEK-Blue hTLR8 cells with TLR8 ligands. Therefore the reporter expression was declined by TLR8 antagonist under the stimulation of a ligand, such as R848, for incubation of 20 hrs. The cell culture supernatant SEAP reporter activity was determined using QUANTI-Blue™ kit (Cat. #: rep-qb1, Invivogen, San Diego, Ca, USA) at a wavelength of 640 nm, a detection medium that turns purple or blue in the presence of alkaline phosphatase.
HEK293-Blue-hTLR8 cells were incubated at a density of 250,000˜450,000 cells/mL in a volume of 170 μL in a 96-well plate in Dulbecco's Modified Eagle's medium (DMEM) containing 4.5 g/L glucose, […] penicillin, […], […] Normocin, 2 mM L-glutamine, 10% (v/v) heat-inactivated fetal bovine serum with addition of 20 μL test compound in a serial dilution in the presence of final DMSO at 1% and 10 μL of 60 uM R848 in above DMEM, perform incubation under 37° C. in a C02 incubator for 20 hrs. Then 20 μL of the supernatant from each well was incubated with 180 μL Quanti-blue substrate solution at 37° C. for 2 hrs and the absorbance was read at 620-655 nm using a spectrophotometer. The signaling pathway that TLR8 activation leads to downstream NF-κB activation has been widely accepted, and therefore similar reporter assay was modified for evaluating TLR8 antagonist.
Turning to `C[C@H]1CN(c2ccnc3c2cnn3C)Cc2ccc(N3CC4CNC[C@H]4C3=O)cc21` (relative stereo) [Example 17, cis-5-[(4R)-4-methyl-2-(1-methylpyrazolo[3,4-b]pyridin-4-yl)-3,4-dihydro-1H-isoquinolin-6-yl]-1,2,3,3a,6,6a-hexahydropyrrolo[3,4-c]pyrrol-4-one], the IC50 is 11 nM. On to `C[C@H]1CN(c2ccnc3c2cnn3C)Cc2ccc(N3C[C@]4(CCNC4)CC3=O)cc21` (single isomer, unassigned) [Example 54], for which the IC50 stood at 5 nM. For `C[C@H]1CN(c2ccnc3c2cnn3C)Cc2ccc(N3C[C@H]4CCNC[C@H]4C3=O)cc21` (single isomer, unassigned) [Example 56] the value was 7 nM; for `C[C@H]1CN(c2ccnc3c2cnn3C)Cc2ccc(N3C[C@@H]4CCNC[C@@H]4C3=O)cc21` (single isomer, unassigned) [Example 57], 24 nM; for `CC1CN(c2ccnc3c2cnn3C)Cc2ccc(N3CCC4(CCNCC4)CC3)cc21` (stereo not drawn) [Example 4, 3-[4-methyl-2-(1-methylpyrazolo[3,4-b]pyridin-4-yl)-3,4-dihydro-1H-isoquinolin-6-yl]-3,9-diazaspiro[5.5]undecane], 7 nM. For `Cc1cc(N2Cc3ccc(N4CCC5(CCNCC5)CC4)cc3C(C)C2)c2cnn(C)c2n1` (stereo not drawn) [Example 5, 3-[2-(1,6-dimethylpyrazolo[3,4-b]pyridin-4-yl)-4-methyl-3,4-dihydro-1H-isoquinolin-6-yl]-3,9-diazaspiro[5.5]undecane] the value was 10 nM; for `Cn1ncc2c(N3Cc4ccc(N5CCC6(CCNCC6)CC5)cc4C(C)(C)C3)ccnc21` [Example 6, 3-[4,4-dimethyl-2-(1-methylpyrazolo[3,4-b]pyridin-4-yl)-1,3-dihydroisoquinolin-6-yl]-3,9-diazaspiro[5.5]undecane], 18 nM; for `C[C@H]1CN(c2ccnc3c2cnn3C)Cc2ccc(N3CCC(N4CCNCC4)CC3)cc21` [Example 10, (4R)-4-methyl-2-(1-methylpyrazolo[3,4-b]pyridin-4-yl)-6-(4-piperazin-1-yl-1-piperidyl)-3,4-dihydro-1H-isoquinoline], 1 nM. The same measure for `CO[C@@H]1CN(C2CCN(c3ccc4c(c3)[C@@H](C)CN(c3ccnc5c3cnn5C)C4)CC2)C[C@H]1N` [Example 11, (3R,4R)-4-methoxy-1-[1-[(4R)-4-methyl-2-(1-methylpyrazolo[3,4-b]pyridin-4-yl)-3,4-dihydro-1H-isoquinolin-6-yl]-4-piperidyl]pyrrolidin-3-amine]: < 0.3 nM; for `C[C@H]1CN(c2ccnc3c2cnn3C)Cc2ccc(N3CCN(C(=O)C4CNCCO4)CC3)cc21` (stereo partly drawn) [Example 12, morpholin-2-yl-[4-[(4R)-4-methyl-2-(1-methylpyrazolo[3,4-b]pyridin-4-yl)-3,4-dihydro-1H-isoquinolin-6-yl]piperazin-1-yl]methanone]: 8 nM; for `C[C@H]1CN(c2ccnc3c2cnn3C)Cc2ccc(N3C[C@H]4CNCCN4C3=O)cc21` [Example 24, (8aR)-2-[(4R)-4-methyl-2-(1-methylpyrazolo[3,4-b]pyridin-4-yl)-3,4-dihydro-1H-isoquinolin-6-yl]-1,5,6,7,8,8a-hexahydroimidazo[1,5-a]pyrazin-3-one]: 2 nM.

On to `C[C@H]1CN(c2ccnc3c2cnn3C)Cc2ccc(N3C[C@@H]4CNCCN4C3=O)cc21` [Example 25, (8aS)-2-[(4R)-4-methyl-2-(1-methylpyrazolo[3,4-b]pyridin-4-yl)-3,4-dihydro-1H-isoquinolin-6-yl]-1,5,6,7,8,8a-hexahydroimidazo[1,5-a]pyrazin-3-one], for which the IC50 is < 0.3 nM.

As to `Cc1cc(N2Cc3ccc(OC[C@H]4CNCCN4)cc3[C@@H](C)C2)c2cnn(C)c2n1` [Example 30, (4R)-2-(1,6-dimethylpyrazolo[3,4-b]pyridin-4-yl)-4-methyl-6-[[(2R)-piperazin-2-yl]methoxy]-3,4-dihydro-1H-isoquinoline], the IC50 was found to be 2 nM. For `C[C@H]1CN(c2ccnc3c2cnn3C)Cc2ccc(N3CCN(S(=O)(=O)C4CCNC4)CC3)cc21` (stereo partly drawn) [Example 33, (4R)-4-methyl-2-(1-methylpyrazolo[3,4-b]pyridin-4-yl)-6-(4-pyrrolidin-3-ylsulfonylpiperazin-1-yl)-3,4-dihydro-1H-isoquinoline] the value was 15 nM; for `C[C@H]1CN(c2ccnc3c2cnn3C)Cc2ccc(OC[C@@H]3CNCCN3C)cc21` [Example 44, (4R)-4-methyl-2-(1-methylpyrazolo[3,4-b]pyridin-4-yl)-6-[[(2S)-1-methylpiperazin-2-yl]methoxy]-3,4-dihydro-1H-isoquinoline], 5 nM; for `C[C@H]1CN(c2ccnc3c2cnn3C)Cc2ccc(N3CCNC(CO)C3)cc21` (stereo partly drawn) [Example 49, [4-[(4R)-4-methyl-2-(1-methylpyrazolo[3,4-b]pyridin-4-yl)-3,4-dihydro-1H-isoquinolin-6-yl]piperazin-2-yl]methanol], 2 nM. The same measure for `Cc1cc(N2Cc3ccc(N4CCC(N(C)C)CC4)nc3[C@@H](C)C2)c2cnn(C)c2n1` [Example 60, N,N-dimethyl-1-[(8S)-6-(1,6-dimethylpyrazolo[3,4-b]pyridin-4-yl)-8-methyl-7,8-dihydro-5H-1,6-naphthyridin-2-yl]piperidin-4-amine]: 0.5 nM. As to `Cc1cc(N2Cc3ccc(N4CCC(O)(CN(C)C)CC4)nc3[C@@H](C)C2)c2cnn(C)c2n1` [Example 61, 4-[(dimethylamino)methyl]-1-[(8S)-6-(1,6-dimethylpyrazolo[3,4-b]pyridin-4-yl)-8-methyl-7,8-dihydro-5H-1,6-naphthyridin-2-yl]piperidin-4-ol], the IC50 is 0.5 nM. For `CO[C@H]1CN(c2ccc3c(n2)[C@@H](C)CN(c2cc(C)nc4c2cnn4C)C3)CC[C@@H]1N` [Example 65, (3S,4S)-3-methoxy-1-[(8S)-6-(1,6-dimethylpyrazolo[3,4-b]pyridin-4-yl)-8-methyl-7,8-dihydro-5H-1,6-naphthyridin-2-yl]piperidin-4-amine] the value was 1 nM. For `Cc1cc(N2Cc3cnc(N4CCNC5(CC5)C4)cc3[C@@H](C)C2)c2cnn(C)c2n1` [Example 75, (4R)-6-(4,7-diazaspiro[2.5]octan-7-yl)-2-(1,6-dimethylpyrazolo[3,4-b]pyridin-4-yl)-4-methyl-3,4-dihydro-1H-2,7-naphthyridine], the IC50 was determined as 13 nM. The same measure for `COC[C@H]1CN(c2cc3c(cn2)CN(c2cc(C)nc4c2cnn4C)C[C@@H]3C)CCN1` [Example 81, (4R)-2-(1,6-dimethylpyrazolo[3,4-b]pyridin-4-yl)-4-methyl-6-[(3R)-3-(methoxymethyl)piperazin-1-yl]-3,4-dihydro-1H-2,7-naphthyridine]: 8 nM.
